Assay results reported in US11485751B2, “Apramycin derivatives” (WAYNE STATE UNIVERSITY, priority 2017, dated 2022).
≈ marks a conversion by molar mass, not a printed value. Where two headings read alike, the source gives them in different places.

Key:
[1] = tested on: AG290, Enterobacter cloacae; experiment: MIC reference strain AG290; type: cell-based; details: for MIC: Enterobacter cloacae, read-out: MIC AG290 E. cloacae
Description: (§1) Minimal inhibitory concentrations (MIC) have been determined by broth microdilution assays (CLSI. Methods for Dilution Antimicrobial Susceptibility Tests for Bacteria That Grow Aerobically; Approved Standard—Tenth Edition. CLSI document M07-A10. Wayne, Pa.: Clinical and Laboratory Standards Institute; 2015.).
(§2) Table 4 and 5 show the antibacterial activity of the compounds of the invention against bacterial reference strains (table 4) and against representative clinical isolates (table 5).
(§3) Legend to Tables: GEN, gentamicin; AMK, amikacin; PLZ, plazomicin; APR, apramycin; AG212, Escherichia coli ATCC25922; AG215, Klebsiella pneumonia; AG220, Pseudomonas aeruginosa ATCC27853; AG225, Acinetobacter baumannii pittii; AG290, Enterobacter cloacae; […], Mycobacterium smegmatis. MICs for AG192 have been determined in the presence of 0.5 μg/mL of ampicillin in the medium to mimic the synergistic effect of aminoglycoside and β-lactam antibiotics combination therapy in the treatment of Enterococcus infections in humans.

[2] = tested on: Engineered E. coli pH427 rmtF; experiment: Activity against G1405-methylated 16S-rRNA, E. coli pH427 rmtF; type: cell-based
Description: as §1

[3] = tested on: E. coli AG153 AAC(3)-II APH(3′)-II rmtB; experiment: Activity against G1405-methylated 16S-rRNA, clinical isolate AG153; type: cell-based; parameters: unit not given here
Description: as §1

[4] = tested on: Enterob. AG302 AAC(3)-II AAC(6′)-I rmtC; experiment: Activity against G1405-methylated 16S-rRNA, clinical isolate AG302; type: cell-based
Description: as §1

[5] = tested on: AG225, Acinetobacter baumannii pittii; experiment: MIC reference strain AG225; type: cell-based; details: for MIC: Acinetobacter baumannii, read-out: MIC AG225 A. baumannii
Description: as §1, §2, §3

[6] = tested on: AG031 P. aer. APH(3′)-II; experiment: Antibacterial activity, clinical isolate AG031; type: cell-based; parameters: unit not given here
Description: as §1, §2

[7] = tested on: AG212, Escherichia coli ATCC25922; experiment: MIC reference strain AG212; type: cell-based; details: for MIC: Escherichia coli
Description: as §1, §2, §3

[8] = tested on: AG220, Pseudomonas aeruginosa ATCC27853; experiment: MIC reference strain AG220; type: cell-based; details: for MIC: Pseudomonas aeruginosa
Description: as §1, §2, §3

[9] = tested on: AG042 MRSA AAC(6′)-I ANT(4′)-I APH(2′); experiment: Antibacterial activity, clinical isolate AG042; type: cell-based; parameters: unit not given here
Description: as §1, §2

[10] = tested on: AG032 P. aer. APH(3′)-II; experiment: Antibacterial activity, clinical isolate AG032; type: cell-based; parameters: unit not given here
Description: as §1, §2

[11] = tested on: A baum. AG227 APH(3′)-I armA; experiment: Activity against G1405-methylated 16S-rRNA, clinical isolate AG227; type: cell-based
Description: as §1

[12] = tested on: Engineered E. coli pH430 WT; experiment: Activity, engineered E. coli pH430 WT; type: cell-based; parameters: unit not given here; details: wild type
Description: as §1

[13] = tested on: AG033 P. aer. APH(3′)-II AAC(6′)-I; experiment: Antibacterial activity, clinical isolate AG033; type: cell-based; parameters: unit not given here
Description: as §1, §2

[14] = tested on: ATCC19977 M. abcessus; experiment: MIC reference strain ATCC19977; type: cell-based; details: for MIC: read-out: MIC ATCC19977 M. abcessus
Description: as §1, §2

[15] = tested on: Engineered E. coli pH424 armA; experiment: Activity against G1405-methylated 16S-rRNA, E. coli pH424 armA; type: cell-based
Description: as §1

[16] = tested on: AG039 MRSA AAC(6′)-I ANT(4′)-I; experiment: Antibacterial activity, clinical isolate AG039; type: cell-based
Description: as §1, §2

[17] = tested on: AG215, Klebsiella pneumonia; experiment: MIC reference strain AG215; type: cell-based; details: for MIC: Klebsiella pneumoniae, read-out: MIC AG215 K. pneumonia
Description: as §1, §2, §3

[18] = tested on: AG038 MRSA; experiment: Antibacterial activity, clinical isolate AG038; type: cell-based; parameters: unit not given here
Description: as §1, §2

[19] = tested on: K. pneum. AG269 AAC(3)-II AAC(6′)-I rmtB; experiment: Activity against G1405-methylated 16S-rRNA, clinical isolate AG269; type: cell-based
Description: as §1

[20] = tested on: Engineered E. coli pH426 rmtC; experiment: Activity against G1405-methylated 16S-rRNA, E. coli pH426 rmtC; type: cell-based
Description: as §1

[21] = tested on: Engineered E. coli pH425 rmtB; experiment: Activity against G1405-methylated 16S-rRNA, E. coli pH425 rmtB; type: cell-based
Description: as §1

[22] = tested on: AG003 E. coli AAC(3)-II; experiment: Antibacterial activity, clinical isolate AG003; type: cell-based; parameters: unit not given here
Description: as §1, §2

[23] = tested on: AG001 E. coli WT; experiment: Antibacterial activity, clinical isolate AG001; type: cell-based; parameters: unit not given here
Description: as §1, §2

[24] = tested on: AG055 E. coli WT; experiment: Antibacterial activity, clinical isolate AG055; type: cell-based; parameters: unit not given here
Description: as §1, §2

[25] = tested on: human mitochondrial ribosomes; experiment: in-vitro translation assay, human mitochondrial (human chimeric) ribosomes; type: biochemical
Description: (§4) IC50 values for bacterial, human chimeric, and rabbit reticulocyte ribosomes have been determined by in-vitro translation assays as described previously (Proc. Nat. Ac. Sci USA 2012, 109(27):10984-10989).
(§5) Minimal inhibitory concentrations (MICs, […]) against clinical isolates from Institute of Medical Microbiology, Univ. Zurich, and the IC50 values for bacterial, human mitochondrial and human cytosolic ribosomes are indicated.

[26] = tested on: clinical isolates carrying AAC(3)-IV; experiment: MIC broth microdilution, AAC(3)-IV; type: cell-based; details: read-out: MIC AAC(3)-IV
Description: as §1, §5
(§6) Minimal inhibitory concentrations (μg/ml) against clinical isolates from Institute of Medical Microbiology, Univ. Zurich, and the IC50 values for bacterial, human mitochondrial and human cytosolic ribosomes are indicated.
(§7) The Minimal inhibitory concentrations (MICs, μg/ml) against clinical isolates from Institute of Medical Microbiology, Univ Zurich, and the IC50 values for bacterial, human mitochondrial and human cytosolic ribosomes are indicated.

[27] = tested on: isolates carrying apmA; experiment: MIC broth microdilution, apmA; type: cell-based; details: apmA resistance gene
Description: as §1, with “2015.). […]” for “2015.).”
as §6, §7

[28] = tested on: human cytosolic ribosomes; experiment: in-vitro translation assay, human cytosolic ribosomes; type: biochemical
Description: as §4, §5

[29] = tested on: bacterial ribosomes; experiment: in-vitro translation assay, bacterial ribosomes; type: biochemical
Description: as §4, §5

[30] = tested on: AG173 E. coli AAC(3)-IV; experiment: Antibacterial activity, clinical isolate AG173; type: cell-based
Description: as §1, §2

[31] = tested on: SZ380, Mycobacterium smegmatis; experiment: MIC reference strain SZ380; type: cell-based; details: Mycolicibacterium smegmatis, read-out: MIC SZ380 M. smegmatis
Description: as §1, §2, §3

[32] = tested on: WT clinical isolates; experiment: MIC broth microdilution, WT; type: cell-based; details: read-out: MIC WT, clinical isolates, IMM Univ. Zurich; wild type
Description: as §1, §5, §6, §7

Compound: NCC[C@H](O)C(=O)N[C@@H]1C[C@H](N)[C@@H](O[C@H]2O[C@H](CN)[C@@H](O)[C@H](O)[C@H]2O)[C@H](O)[C@H]1O[C@H]1O[C@H](CO)[C@@H](O)[C@H](N)[C@H]1O [AMK, amikacin, reference compound]
- MIC ([1]; reference strain): 1 µg/mL
- Activity E. coli pH427 rmtF [2]: >128
- Activity E. coli AG153 AAC(3)-II APH(3′)-II rmtB [3]: >256
- Activity Enterob. AG302 AAC(3)-II AAC(6′)-I rmtC [4]: >256
- MIC ([5]; reference strain): 2 µg/mL
- Antibacterial activity AG031 P. aer. APH(3′)-II [6]: 4
- MIC ([7]; reference strain ATCC25922, read-out: MIC AG212 E. coli): 2 µg/mL
- MIC ([8]; ATCC27853, reference strain ATCC27853, read-out: MIC AG220 P. aeruginosa): 2 µg/mL
- Antibacterial activity AG042 MRSA AAC(6′)-I ANT(4′)-I APH(2′) [9]: 16-32
- Antibacterial activity AG032 P. aer. APH(3′)-II [10]: 4
- Activity A baum. AG227 APH(3′)-I armA [11]: >256
- Activity E. coli pH430 WT [12]: 1
- Antibacterial activity AG033 P. aer. APH(3′)-II AAC(6′)-I [13]: 64
- MIC [14]: 2 µg/mL (≈ 3.42 µM)
- Activity E. coli pH424 armA [15]: >128
- Antibacterial activity AG039 MRSA AAC(6′)-I ANT(4′)-I [16]: 2-4
- MIC ([17]; reference strain): 1 µg/mL
- Antibacterial activity AG038 MRSA [18]: 4
- Activity K. pneum. AG269 AAC(3)-II AAC(6′)-I rmtB [19]: >256
- Activity E. coli pH426 rmtC [20]: >128
- Activity E. coli pH425 rmtB [21]: >128

Compound: gentamicin [reference compound]
- MIC AG290 E. cloacae ([1]; reference strain): 0.25 µg/mL
- Antibacterial activity AG003 E. coli AAC(3)-II [22]: 32-64
- Activity E. coli pH427 rmtF [2]: >128
- Activity E. coli AG153 AAC(3)-II APH(3′)-II rmtB [3]: >256
- Activity Enterob. AG302 AAC(3)-II AAC(6′)-I rmtC [4]: >256
- MIC AG225 A. baumannii ([5]; reference strain): 0.5 to 1 µg/mL
- Antibacterial activity AG031 P. aer. APH(3′)-II [6]: 0.5
- MIC AG212 E. coli ([7]; reference strain ATCC25922): 0.5 µg/mL
- MIC AG220 P. aeruginosa ([8]; reference strain ATCC27853): 0.5 to 1 µg/mL
- Antibacterial activity AG042 MRSA AAC(6′)-I ANT(4′)-I APH(2′) [9]: 64
- Antibacterial activity AG032 P. aer. APH(3′)-II [10]: 0.5
- Activity A baum. AG227 APH(3′)-I armA [11]: >256
- Activity E. coli pH430 WT [12]: 0.25
- Antibacterial activity AG033 P. aer. APH(3′)-II AAC(6′)-I [13]: 16
- MIC ATCC19977 M. abcessus ([14]; reference strain): 2 to 4 µg/mL
- Activity E. coli pH424 armA [15]: >128
- Antibacterial activity AG039 MRSA AAC(6′)-I ANT(4′)-I [16]: 0.25-0.5
- MIC AG215 K. pneumonia ([17]; reference strain): 0.25 µg/mL
- Antibacterial activity AG001 E. coli WT [23]: 1
- Antibacterial activity AG038 MRSA [18]: 0.25-0.5
- Activity K. pneum. AG269 AAC(3)-II AAC(6′)-I rmtB [19]: >256
- Activity E. coli pH426 rmtC [20]: >128
- Activity E. coli pH425 rmtB [21]: >128
- Antibacterial activity AG055 E. coli WT [24]: 0.5

Compound: CN[C@H]1C(O)C2O[C@H](O[C@@H]3C(N)C[C@@H](NC(=O)C(O)CCN)[C@@H](O)[C@H]3O)C(N)C[C@@H]2O[C@@H]1O[C@H]1OC(CO)[C@@H](N)[C@H](O)C1O (stereo partly shown) [DC191]
- IC50 [25]: 98 µM
- MIC [1]: 2 µg/mL
- MIC [26]: 4 to 8 µg/mL (≈ 6.24 to 12.5 µM)
- Activity E. coli AG153 AAC(3)-II APH(3′)-II rmtB [3]: 4
- Activity Enterob. AG302 AAC(3)-II AAC(6′)-I rmtC [4]: 2-4
- MIC [5]: 8 µg/mL
- MIC ([7]; ATCC25922, read-out: MIC AG212 E. coli): 2 µg/mL
- MIC ([8]; ATCC27853, read-out: MIC AG220 P. aeruginosa): 4 µg/mL
- MIC [27]: 8 µg/mL (≈ 12.5 µM)
- Activity A baum. AG227 APH(3′)-I armA [11]: 4
- Activity E. coli pH430 WT [12]: 2-4
- MIC [14]: 2 µg/mL (≈ 3.12 µM)
- IC50 [28]: 87 µM
- Activity E. coli pH424 armA [15]: 2
- IC50 [29]: 0.2 µM
- Antibacterial activity AG173 E. coli AAC(3)-IV [30]: 4-8
- MIC [17]: 1 to 2 µg/mL
- Antibacterial activity AG001 E. coli WT [23]: 8
- MIC [31]: 0.5 µg/mL
- Antibacterial activity AG038 MRSA [18]: 4
- Activity K. pneum. AG269 AAC(3)-II AAC(6′)-I rmtB [19]: 2
- MIC [32]: 2 to 4 µg/mL (≈ 3.12 to 6.24 µM)
